Laboratory results taken from ChEMBL document CHEMBL1201862, “PubChem BioAssay data set” (2004).
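Briefly, cells in 96-well plates were exposed to five compound concentrations for 48 h, and endpoints were estimated by linear interpolation. GI50 is the concentration that inhibits growth by half.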 The source made the active and inactive calls. No stated cut-off is given here; in the data, active = GI50 up to about 1.1 µM and inactive = higher.

Tests used:
Assay in all cases: NCI tumour cell line growth inhibition, 48 h
HL-60 = test system: HL-60
SK-MEL-28 = test system: SK-MEL-28
SK-OV-3 = test system: SK-OV-3
HCT-15 = test system: HCT-15
OVCAR-5 = test system: OVCAR-5
SN12C = test system: SN12C
M14 = test system: M14
IGROV-1 = test system: IGROV-1
MOLT-4 = test system: MOLT-4
HOP-92 = test system: HOP-92
RXF 393 = test system: RXF 393
OVCAR-4 = test system: OVCAR-4
U-251 = test system: U-251
NCI-H460 = test system: NCI-H460
OVCAR-3 = test system: OVCAR-3
MDA-N = test system: MDA-N
Malme-3M = test system: Malme-3M

In the case of CCNCCNC(=O)c1ccc(I)cc1, the GI50 (HL-60) is reported as > 100 µM (inactive), the GI50 (SK-MEL-28) is reported as > 100 µM (inactive) and the GI50 (SK-OV-3) is reported as > 100 µM (inactive). The GI50 (HCT-15) was > 100 µM, the GI50 (OVCAR-5) was > 100 µM (inactive) and the GI50 (SN12C) was > 100 µM (inactive). For the same compound, the GI50 (M14) was > 100 µM (inactive), the GI50 (IGROV-1) was > 100 µM (inactive) and the GI50 (MOLT-4) was > 100 µM (inactive). The GI50 (HOP-92) was 99.8 µM (inactive), the GI50 (RXF 393) was > 100 µM (inactive) and the GI50 (OVCAR-4) was > 100 µM (inactive). The GI50 (U-251) was > 100 µM (inactive), the GI50 (NCI-H460) was > 100 µM (inactive) and the GI50 (OVCAR-3) was > 100 µM (inactive).

In the case of CC(=O)NN/C=N/C(C#N)=C(\N)C#N, the GI50 (HL-60) is reported as > 100 µM (inactive), the GI50 (MDA-N) is reported as > 100 µM (inactive) and the GI50 (SK-MEL-28) is reported as > 100 µM (inactive). For the same compound, the GI50 (SK-OV-3) was > 100 µM (inactive), the GI50 (HCT-15) was > 100 µM and the GI50 (OVCAR-5) was > 100 µM (inactive). The GI50 (SN12C) was > 100 µM (inactive), the GI50 (M14) was > 100 µM (inactive) and the GI50 (IGROV-1) was > 100 µM (inactive). The GI50 (MOLT-4) was > 100 µM (inactive), the GI50 (OVCAR-4) was > 100 µM (inactive) and the GI50 (Malme-3M) was > 100 µM (inactive). For the same compound, the GI50 (U-251) was > 100 µM (inactive), the GI50 (NCI-H460) was > 100 µM (inactive) and the GI50 (OVCAR-3) was > 100 µM (inactive).

N#Cc1c(-c2ccccc2)c(/C=N/c2cccc(C(F)(F)F)c2)c(=O)n2c1[nH]c1ccccc12 was tested, and the GI50 (MDA-N) was 28 µM (inactive), the GI50 (SK-MEL-28) was 59 µM (inactive) and the GI50 (SK-OV-3) was 26.9 µM (inactive). For the same compound, the GI50 (HCT-15) was 33 µM, the GI50 (OVCAR-5) was 10.8 µM (inactive) and the GI50 (SN12C) was 17.4 µM (inactive). The GI50 (M14) was 32.3 µM (inactive), the GI50 (IGROV-1) was 29.2 µM (inactive) and the GI50 (RXF 393) was 32.8 µM (inactive). For the same compound, the GI50 (OVCAR-4) was 51.1 µM (inactive), the GI50 (Malme-3M) was 42.3 µM (inactive) and the GI50 (U-251) was 45 µM (inactive). For the same compound, the GI50 (NCI-H460) was 14.5 µM (inactive).

O=C(C(=O)c1cc(-c2ccccc2)nc2ccc3ccccc3c12)c1ccccc1 was tested, and the GI50 (HL-60) was 20.7 µM (inactive), the GI50 (MDA-N) was 36.1 µM (inactive) and the GI50 (SK-MEL-28) was 28.6 µM (inactive). For the same compound, the GI50 (SK-OV-3) was 46.7 µM (inactive), the GI50 (HCT-15) was 75 µM and the GI50 (OVCAR-5) was > 100 µM (inactive). For the same compound, the GI50 (SN12C) was > 100 µM (inactive), the GI50 (M14) was 67.5 µM (inactive) and the GI50 (IGROV-1) was 37.9 µM (inactive). For the same compound, the GI50 (MOLT-4) was 22.1 µM (inactive), the GI50 (RXF 393) was 39 µM (inactive) and the GI50 (OVCAR-4) was 21.1 µM (inactive). For the same compound, the GI50 (Malme-3M) was 27.8 µM (inactive), the GI50 (U-251) was 34.5 µM (inactive) and the GI50 (NCI-H460) was > 100 µM (inactive). For the same compound, the GI50 (OVCAR-3) was 67.1 µM (inactive).

For COC[C@@H](/N=C/c1ccc([N+](=O)[O-])cc1)C(C)C, the GI50 (MDA-N) was 29.4 µM (inactive), the GI50 (SK-MEL-28) was > 100 µM (inactive) and the GI50 (SK-OV-3) was > 100 µM (inactive). The GI50 (HCT-15) was > 100 µM, the GI50 (OVCAR-5) was > 100 µM (inactive) and the GI50 (SN12C) was > 100 µM (inactive). The GI50 (M14) was 70.1 µM (inactive), the GI50 (IGROV-1) was > 100 µM (inactive) and the GI50 (MOLT-4) was 42.2 µM (inactive). For the same compound, the GI50 (RXF 393) was > 100 µM (inactive), the GI50 (OVCAR-4) was > 100 µM (inactive) and the GI50 (Malme-3M) was > 100 µM (inactive). For the same compound, the GI50 (U-251) was > 100 µM (inactive) and the GI50 (NCI-H460) was > 100 µM (inactive).

In the case of Cc1cc2c(c(/C=N/Cc3ccccc3)c1)OC1(C=C2)Oc2ccccc2C(=O)N1C (stereo unspecified), the GI50 (HL-60) is reported as 21 µM (inactive), the GI50 (SK-MEL-28) is reported as 29.8 µM (inactive) and the GI50 (SK-OV-3) is reported as 37.5 µM (inactive). For the same compound, the GI50 (HCT-15) was 19.6 µM, the GI50 (OVCAR-5) was 21.4 µM (inactive) and the GI50 (SN12C) was 27.7 µM (inactive). The GI50 (M14) was 23.2 µM (inactive), the GI50 (IGROV-1) was 22 µM (inactive) and the GI50 (MOLT-4) was 4.5 µM (inactive). For the same compound, the GI50 (HOP-92) was 17.5 µM (inactive), the GI50 (RXF 393) was 20 µM (inactive) and the GI50 (OVCAR-4) was 29.2 µM (inactive). For the same compound, the GI50 (U-251) was 29.4 µM (inactive), the GI50 (NCI-H460) was 25.1 µM (inactive) and the GI50 (OVCAR-3) was 37.4 µM (inactive).

With COc1cc(S(=O)(=O)Nc2ccc(-c3csc(/N=C\c4cccs4)n3)cc2)ccc1Cl the GI50 (MDA-N) was 34.4 µM (inactive), the GI50 (SK-MEL-28) was 35.9 µM (inactive) and the GI50 (SK-OV-3) was > 100 µM (inactive). The GI50 (HCT-15) was > 100 µM, the GI50 (OVCAR-5) was > 100 µM (inactive) and the GI50 (SN12C) was 89.5 µM (inactive). For the same compound, the GI50 (M14) was 61.8 µM (inactive), the GI50 (IGROV-1) was 69.7 µM (inactive) and the GI50 (HOP-92) was > 100 µM (inactive). The GI50 (OVCAR-4) was > 100 µM (inactive), the GI50 (Malme-3M) was 78 µM (inactive) and the GI50 (NCI-H460) was 53 µM (inactive). The GI50 (OVCAR-3) was 54.6 µM (inactive).
